Experimental data from the supplement of paper PMC10307832.

What was measured:
Assay in all cases: relative viability (nuclei count vs DMSO), 5 days (fraction); higher = more cells survive
AZ628 + Dasatinib = compound: CC1=C(C=C(C=C1)NC(=O)C2=CC(=CC=C2)C(C)(C)C#N)NC3=CC4=C(C=C3)N=CN(C4=O)C [AZ628] + Cc1nc(Nc2ncc(C(=O)Nc3c(C)cccc3Cl)s2)cc(N2CCN(CCO)CC2)n1 [Dasatinib] (partner 0.075 µM)
How it was run: (§1)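 The day after seeding in 1536-well plates, lung cancer cell lines were treated by pin tool with a single drug, or with a fixed anchor-drug dose together with five library-drug doses (not always all listed) in √10 steps. After 5 days, a combined fix-and-stain solution (final 0.05% Triton X-100, 1% formaldehyde, 1 ug/ml Hoechst) was added. Nuclei counted on 4× images gave relative viability as treated counts over vehicle counts, reported as the median of duplicate plates.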

[1] = compound: C[As](C)SC[C@H](NC(=O)CC[C@H](N)C(=O)O)C(=O)NCC(=O)O [Darinaparsin] + CC(C)C[C@H](NC(=O)[C@H](Cc1ccccc1)NC(=O)c1cnccn1)B(O)O [Bortezomib] (partner 0.002 µM)
How it was run: as §1

QS11 + Crizotinib = compound: C1CC2=C(C1)C=C(C=C2)OC3=NC(=C4C(=N3)N(C=N4)CC5=CC=C(C=C5)C6=CC=CC=C6)N[C@@H](CC7=CC=CC=C7)CO [QS11] + C[C@@H](Oc1cc(-c2cnn(C3CCNCC3)c2)cnc1N)c1c(Cl)ccc(F)c1Cl [Crizotinib] (partner 1 µM)
How it was run: as §1

QS11 + Phenformin = compound: C1CC2=C(C1)C=C(C=C2)OC3=NC(=C4C(=N3)N(C=N4)CC5=CC=C(C=C5)C6=CC=CC=C6)N[C@@H](CC7=CC=CC=C7)CO [QS11] + N=C(N)NC(=N)NCCc1ccccc1 [Phenformin] (partner 250 µM)
How it was run: as §1

| Cell Line | relative viability (AZ628 + Dasatinib; first compound 0.08 µM) | relative viability (AZ628 + Dasatinib; first compound 0.253 µM) | relative viability (AZ628 + Dasatinib; first compound 0.8 µM) | relative viability (AZ628 + Dasatinib; first compound 2.53 µM) | relative viability (AZ628 + Dasatinib; first compound 8 µM) | relative viability ([1]; first compound 0.08 µM) | relative viability ([1]; first compound 0.8 µM) | relative viability ([1]; first compound 2.53 µM) | relative viability ([1]; first compound 8 µM) | relative viability (QS11 + Crizotinib; first compound 0.08 µM) | relative viability (QS11 + Crizotinib; first compound 0.253 µM) | relative viability (QS11 + Crizotinib; first compound 0.8 µM) | relative viability (QS11 + Crizotinib; first compound 2.53 µM) | relative viability (QS11 + Crizotinib; first compound 8 µM) | relative viability (QS11 + Phenformin; first compound 0.08 µM) | relative viability (QS11 + Phenformin; first compound 0.253 µM) | relative viability (QS11 + Phenformin; first compound 0.8 µM) | relative viability (QS11 + Phenformin; first compound 2.53 µM) | relative viability (QS11 + Phenformin; first compound 8 µM) |
| --- | --- | --- | --- | --- | --- | --- | --- | --- | --- | --- | --- | --- | --- | --- | --- | --- | --- | --- | --- |
| LC-2-ad | 0.713 | 0.419 | 0.396 | 0.365 | 0.149 | 1.2 | 1.02 | 0.951 | 1.33 | 0.468 | 0.479 | 0.398 | 0.443 | 0.495 | 0.535 | 0.482 | 0.535 | 0.551 | 0.599 |
| LCLC-103H | 0.559 | 0.427 | 0.523 | 0.399 | 0.478 | 1.05 | 0.978 | 1.14 | 1.35 | 1.01 | 1.08 | 0.808 | 1 | 1.08 | 0.315 | 0.403 | 0.341 | 0.342 | 0.382 |
| LOU-NH91 | 0.553 | 0.484 | 0.541 | 0.497 | 0.471 | 0.495 | 0.56 | 0.537 | 0.519 | 0.713 | 0.709 | – | 0.694 | 0.744 | 0.685 | 0.62 | 0.657 | 0.67 | 0.663 |
| LU99A | 0.527 | 0.625 | 0.52 | 0.492 | 0.242 | 1.33 | 1.01 | 1.17 | 1.21 | 0.554 | 0.586 | 0.544 | 0.446 | 0.385 | 0.768 | 0.975 | 1.07 | 0.827 | 0.869 |
| LXF-289 | 0.192 | 0.23 | 0.279 | 0.274 | 0.167 | 1.09 | 1.03 | 0.81 | 1.19 | 0.814 | 0.807 | 0.678 | 0.687 | 0.617 | 0.468 | 0.509 | 0.486 | 0.495 | 0.541 |
| NCI-H23 | 0.708 | 0.75 | 0.44 | 0.509 | 0.302 | 1.17 | 1.19 | 0.795 | 1.14 | 0.473 | 0.462 | 0.473 | 0.385 | 0.44 | 0.769 | 0.779 | 0.853 | 0.678 | 0.877 |
| NCI-H322M | 0.28 | 0.261 | 0.264 | 0.231 | 0.268 | 1.21 | 1.3 | 1.04 | 1.32 | 0.934 | 0.835 | 0.79 | 0.754 | 1 | 0.784 | 0.824 | 0.803 | 0.877 | 1.06 |
| NCI-H441 | 0.643 | 0.577 | 0.598 | 0.567 | 0.277 | 0.611 | 0.513 | 0.636 | 0.447 | 0.776 | 0.847 | 0.621 | 0.6 | 0.707 | 0.861 | 0.958 | 0.71 | 1.01 | 0.884 |
| NCI-H460 | 0.569 | 0.428 | 0.362 | 0.407 | 0.132 | – | 1.11 | 0.703 | 1.84 | 1.17 | 0.868 | 0.684 | 0.31 | 0.177 | 0.556 | 0.498 | 0.477 | 0.442 | 0.227 |
| NCI-H520 | 0.254 | 0.189 | 0.325 | 0.18 | 0.215 | 0.765 | 0.491 | 0.531 | 0.474 | – | 0.907 | 0.831 | 0.587 | 0.932 | 0.476 | 0.687 | 0.607 | 0.489 | 0.574 |
| NCI-H596 | 0.693 | 0.618 | 0.573 | 0.565 | 0.471 | 1.35 | 1.09 | 1 | 1 | 1.03 | 0.862 | 0.963 | 0.991 | 1.04 | 0.736 | 0.81 | 0.804 | 0.832 | 0.874 |
| NCI-H647 | 0.193 | 0.173 | 0.217 | 0.14 | 0.15 | 1.79 | 1.17 | 0.802 | 1.17 | 1.25 | 1.3 | 0.937 | 0.992 | 0.706 | 0.372 | 0.57 | 0.514 | 0.478 | 0.527 |
| NCI-H650 | 0.529 | 0.487 | 0.463 | 0.558 | 0.434 | 0.881 | 0.894 | 0.728 | 0.776 | 0.722 | 0.726 | 0.753 | 0.55 | 0.607 | 0.428 | 0.486 | 0.475 | 0.392 | 0.399 |
| NCI-H661 | 0.87 | 0.644 | 0.629 | 0.666 | 0.659 | 0.975 | 0.853 | 0.92 | 0.889 | 0.887 | 1.08 | 0.753 | 0.872 | 0.985 | 0.221 | 0.297 | 0.273 | 0.297 | 0.261 |
| NCI-H727 | 0.318 | 0.3 | 0.306 | 0.23 | 0.264 | 0.912 | 0.742 | 0.963 | 0.986 | 0.813 | 0.958 | 0.857 | 0.729 | 0.631 | 0.88 | 0.442 | 0.459 | 0.557 | 0.372 |
| NCI-H838 | 0.287 | 0.291 | 0.297 | 0.274 | 0.284 | 0.976 | 0.766 | 0.679 | 0.811 | 0.937 | 0.788 | 0.576 | 0.746 | 0.761 | 0.629 | 0.468 | 0.519 | 0.517 | 0.531 |
| NCI-H1355 | 0.723 | 0.663 | 0.611 | 0.626 | 0.458 | 1.38 | 1.13 | 1.19 | 1.36 | 0.99 | 1.58 | 0.823 | 0.915 | 0.972 | 0.445 | 0.444 | 0.457 | 0.418 | 0.457 |
